Measurements from patent publication US20200077656A1, “Use of an Acyclic Picolinamide Compound as a Fungicide for Control of Phytopathogenic Fungi in Row Crops” (priority 2017, published 2020).

What was measured:
Assay type in all cases: in vivo
[1] = tested on: Blumeria graminis f. sp. tritici; assay: Field assessment of Blumeria graminis f. sp. tritici (ERYSGT) on wheat
Procedure: Field Assessment of Blumeria graminis f sp. […] Disease severity was recorded as a percentage of visual diseased foliage on whole plot. […] infection was assessed three times at 12, 19 and 26 days after the last application. The disease infection was recorded following EPPO PP1/26 guideline prescriptions. Area under the disease progress curve (AUDPC) was calculated for each plot using the sets of recorded severity data. Relative AUDPC (% control based on AUDPC) was calculated as percent of the nontreated control.

Pyrenophora teres [2] = assay: Field assessment of Pyrenophora teres (PYRNTE) on barley, Trial 2 (natural infection); conditions: EC + Trycol; for % Control (AUDPC) of PYRNTE, Trial 2: barley
Procedure: Compound I was applied at a water volume of 200 L/ha under natural infection of Pyrenophora teres. Disease severity was recorded as a percentage of visual diseased foliage on whole plot. Net blotch of barley infection was assessed three times at 7, 14 and 21 days after the last application. The disease infection was recorded following EPPO PP1/26 guideline prescriptions. Area under the disease progress curve (AUDPC) was calculated for each plot using the sets of recorded severity data. Relative AUDPC (% control based on AUDPC) was calculated as percent of the nontreated control.

Cercospora arachidicola = assay: Field assessment of Cercospora arachidicola (MYCOAR) in peanut; conditions: Table 8, early leaf spot of peanut, AUDPC based
[3] = tested on: Blumeria graminis f. sp. hordei; assay: Greenhouse assessment of Blumeria graminis f. sp. hordei (ERYSGH) on barley; conditions: inoculated 1 day post application, barley seedlings
Procedure: Greenhouse Assessment of Blumeria graminis f sp. hordei ([…]) on Barley: In greenhouse studies, technical grades of material were dissolved in acetone, which were then mixed with nine volumes of water containing 100 ppm of Triton X-100. The fungicide formulations were applied onto seedling plants using an automated booth sprayer to run off. All sprayed plants were allowed to dry prior to further handling. Test plants were inoculated with powdery mildew of barley 1-day post application. When disease symptoms were fully expressed on the untreated plants, infection levels were assessed on a scale of 0 to 100 percent disease severity. Percent disease control was calculated using the ratio of disease severity on treated plants relative to untreated plants.

Pyrenophora teres [4] = assay: Field assessment of Pyrenophora teres (PYRNTE) on barley, Trial 1 (inoculated); conditions: EC + Trycol
Description: Field Assessment of Pyrenophora teres ([…]) on Barley: A fungicidal treatment containing an EC formulation of compound I, tanked mixed with an adjuvant (Trycol, 50% w/w at 0.1% v/v), was sprayed on barley plants (spring barley; […] variety) twice, the first application at BBCH 37-43 growth stages of spring barley (0.01% infection on L1 at application) and the second application at growth stages 53-57 of spring barley (6.25% infection at application). […] The experimental plots were inoculated with net blotch of barley (1,000,000 spores/mL) at growth stage 39 of spring barley 1 day after the first […]. […] Disease severity was recorded as a percentage of visual diseased foliage on whole plot. Net blotch of barley infection was assessed three times at 7, 14 and 21 days after the last application. The disease infection was recorded following EPPO PP1/26 guideline prescriptions. Area under the disease progress curve (AUDPC) was calculated for each plot using the sets of recorded severity data. Relative AUDPC (% control based on AUDPC) was calculated as percent of the nontreated control.

Cercospora sojina = assay: Field assessment of Cercospora sojina (CERSO) in soybean; conditions: for Percent Visual Severity of CERCSO: soybean upper canopy, untreated 8.6; for CERCSO Percent of Untreated (AUDPC): leaftop severity
[5] = 50 g/ha, Agnique BP420 200 mL/ha
[6] = 75 g/ha, Agnique BP420 300 mL/ha
[7] = 100 g/ha, Adsee C80W 80% 250 g/ha
[8] = 100 g/ha, Agnique BP420 400 mL/ha
[9] = 150 g/ha, Agnique BP420 600 mL/ha

`COc1ccnc(C(=O)N[C@@H](C)C(=O)O[C@@H](C)C(c2ccc(F)cc2)c2ccc(F)cc2)c1OC(C)=O` [Compound I, (S)-1,1-bis(4-fluorophenyl)propan-2-yl (3-acetoxy-4-methoxypicolinoyl)-L-alaninate] was tested, and the “% Control (AUDPC) of ERYSGT” value ([1]; 5 g ai/ha, EC + Agnique BP-420) was “C (26-50)”, the “% Control (AUDPC) of ERYSGT” value ([1]; 5 g ai/ha, SC + Agnique BP-420) was “C (26-50)” and the “% Control (AUDPC) of ERYSGT” value ([1]; 20 g ai/ha, EC + Agnique BP-420) was “A (76-100)”. For the same compound, the “% Control (AUDPC) of ERYSGT” value ([1]; 20 g ai/ha, SC + Agnique BP-420) was “B (51-75)”, the “% Control (AUDPC) of ERYSGT” value ([1]; 40 g ai/ha, EC + Agnique BP-420) was “A (76-100)” and the “% Control (AUDPC) of ERYSGT” value ([1]; 40 g ai/ha, SC + Agnique BP-420) was “A (76-100)”. For the same compound, the “% Control (AUDPC) of ERYSGT” value ([1]; 60 g ai/ha, EC + Agnique BP-420) was “A (76-100)”, the “% Control (AUDPC) of ERYSGT” value ([1]; 60 g ai/ha, SC + Agnique BP-420) was “A (76-100)” and the “% Control (AUDPC) of ERYSGT” value ([1]; 80 g ai/ha, EC + Agnique BP-420) was “A (76-100)”. For the same compound, the “% Control (AUDPC) of ERYSGT” value ([1]; 80 g ai/ha, SC + Agnique BP-420) was “A (76-100)”, the “% Control (AUDPC) of ERYSGT” value ([1]; 120 g ai/ha, EC + Agnique BP-420) was “A (76-100)” and the “% Control (AUDPC) of ERYSGT” value ([1]; 120 g ai/ha, SC + Agnique BP-420) was “A (76-100)”. The “% Control (AUDPC) of PYRNTE, Trial 2” value (Pyrenophora teres [2]; 50 g ai/ha) was “B (51-75)”, the “% Control (AUDPC) of PYRNTE, Trial 2” value (Pyrenophora teres [2]; 100 g ai/ha) was “B (51-75)” and the “% Control (AUDPC) of PYRNTE, Trial 2” value (Pyrenophora teres [2]; 150 g ai/ha) was “B (51-75)”. For the same compound, the “control of Pyrenophora teres on barley (in words)” value (Pyrenophora teres [2]; replicated field trial, 50, 100 and 150 g ai/ha, natural infection) was “useful levels of control”, the “Calc Percent Control of MYCOAR” value (Cercospora arachidicola; [5]) was 31.5% and the “Calc Percent Control of MYCOAR” value (Cercospora arachidicola; 50 g/ha, MSO 100 g/ha) was 32.0%. For the same compound, the “Calc Percent Control of MYCOAR” value (Cercospora arachidicola; [6]) was 35.6%, the “Calc Percent Control of MYCOAR” value (Cercospora arachidicola; 75 g/ha, MSO 150 g/ha) was 36.3% and the “Calc Percent Control of MYCOAR” value (Cercospora arachidicola; [7]) was 40.3%. The “Calc Percent Control of MYCOAR” value (Cercospora arachidicola; [8]) was 44.8%, the “Calc Percent Control of MYCOAR” value (Cercospora arachidicola; 100 g/ha, MSO 200 g/ha) was 44.4% and the “Calc Percent Control of MYCOAR” value (Cercospora arachidicola; [9]) was 57.7%. The “Calc Percent Control of MYCOAR” value (Cercospora arachidicola; 150 g/ha, MSO 300 g/ha) was 52.3%, the “% Control of ERYSGH (disease severity treated relative to untreated)” value ([3]; 0.39 ppm) was “B (51-75)” and the “% Control of ERYSGH (disease severity treated relative to untreated)” value ([3]; 1.56 ppm) was “A (76-100)”. For the same compound, the “% Control of ERYSGH (disease severity treated relative to untreated)” value ([3]; 6.25 ppm) was “A (76-100)”, the “% Control of ERYSGH (disease severity treated relative to untreated)” value ([3]; 25 ppm) was “A (76-100)” and the “% Control of ERYSGH (disease severity treated relative to untreated)” value ([3]; 100 ppm) was “A (76-100)”. For the same compound, the “% Control (AUDPC) of PYRNTE, Trial 1” value (Pyrenophora teres [4]; 75 g ai/ha) was “B (51-75)”, the “% Control (AUDPC) of PYRNTE, Trial 1” value (Pyrenophora teres [4]; 100 g ai/ha) was “B (51-75)” and the “% Control (AUDPC) of PYRNTE, Trial 1” value (Pyrenophora teres [4]; 150 g ai/ha) was “B (51-75)”. For the same compound, the “Percent Visual Severity of CERCSO” value (Cercospora sojina; [5]) was 5.6%, the “Percent Visual Severity of CERCSO” value (Cercospora sojina; 50 g/ha, MSO 100 g/ha) was 6.5% and the “Percent Visual Severity of CERCSO” value (Cercospora sojina; [6]) was 4.2%. The “Percent Visual Severity of CERCSO” value (Cercospora sojina; 75 g/ha, MSO 150 g/ha) was 3.6%, the “Percent Visual Severity of CERCSO” value (Cercospora sojina; [7]) was 4.5% and the “Percent Visual Severity of CERCSO” value (Cercospora sojina; [8]) was 4.5%. For the same compound, the “Percent Visual Severity of CERCSO” value (Cercospora sojina; 100 g/ha, MSO 200 g/ha) was 4.3%, the “Percent Visual Severity of CERCSO” value (Cercospora sojina; [9]) was 3.3% and the “Percent Visual Severity of CERCSO” value (Cercospora sojina; 150 g/ha, MSO 300 g/ha) was 3.3%. For the same compound, the “CERCSO Percent of Untreated (AUDPC)” value (Cercospora sojina; [5]) was 62.0%, the “CERCSO Percent of Untreated (AUDPC)” value (Cercospora sojina; 50 g/ha, MSO 100 g/ha) was 73.8% and the “CERCSO Percent of Untreated (AUDPC)” value (Cercospora sojina; [6]) was 63.1%. For the same compound, the “CERCSO Percent of Untreated (AUDPC)” value (Cercospora sojina; 75 g/ha, MSO 150 g/ha) was 62.9%, the “CERCSO Percent of Untreated (AUDPC)” value (Cercospora sojina; [7]) was 58.3% and the “CERCSO Percent of Untreated (AUDPC)” value (Cercospora sojina; [8]) was 61.6%. For the same compound, the “CERCSO Percent of Untreated (AUDPC)” value (Cercospora sojina; 100 g/ha, MSO 200 g/ha) was 52.4%, the “CERCSO Percent of Untreated (AUDPC)” value (Cercospora sojina; [9]) was 48.4% and the “CERCSO Percent of Untreated (AUDPC)” value (Cercospora sojina; 150 g/ha, MSO 300 g/ha) was 53.5%.
